Test results: ChEMBL document CHEMBL4190341, “Synthesis and bioevaluation of 1-phenyl-pyrazole-4-carboxylic acid derivatives as potent xanthine oxidoreductase inhibitors” (Eur J Med Chem, 2017)
Calls of active or inactive are those of the source. No cut-off for these calls is given here.

How the values were obtained:
[1] = molecular target: T1, Xanthine dehydrogenase/oxidase (Bos taurus, UniProt P80457); experiment: Inhibition of bovine milk xanthine oxidoreductase pre-incubated for 3 mins followed xanthine substrate addition and measured every 1 mins for 10 mins by spectrophotometry
T1 sequence (P80457 whole entry): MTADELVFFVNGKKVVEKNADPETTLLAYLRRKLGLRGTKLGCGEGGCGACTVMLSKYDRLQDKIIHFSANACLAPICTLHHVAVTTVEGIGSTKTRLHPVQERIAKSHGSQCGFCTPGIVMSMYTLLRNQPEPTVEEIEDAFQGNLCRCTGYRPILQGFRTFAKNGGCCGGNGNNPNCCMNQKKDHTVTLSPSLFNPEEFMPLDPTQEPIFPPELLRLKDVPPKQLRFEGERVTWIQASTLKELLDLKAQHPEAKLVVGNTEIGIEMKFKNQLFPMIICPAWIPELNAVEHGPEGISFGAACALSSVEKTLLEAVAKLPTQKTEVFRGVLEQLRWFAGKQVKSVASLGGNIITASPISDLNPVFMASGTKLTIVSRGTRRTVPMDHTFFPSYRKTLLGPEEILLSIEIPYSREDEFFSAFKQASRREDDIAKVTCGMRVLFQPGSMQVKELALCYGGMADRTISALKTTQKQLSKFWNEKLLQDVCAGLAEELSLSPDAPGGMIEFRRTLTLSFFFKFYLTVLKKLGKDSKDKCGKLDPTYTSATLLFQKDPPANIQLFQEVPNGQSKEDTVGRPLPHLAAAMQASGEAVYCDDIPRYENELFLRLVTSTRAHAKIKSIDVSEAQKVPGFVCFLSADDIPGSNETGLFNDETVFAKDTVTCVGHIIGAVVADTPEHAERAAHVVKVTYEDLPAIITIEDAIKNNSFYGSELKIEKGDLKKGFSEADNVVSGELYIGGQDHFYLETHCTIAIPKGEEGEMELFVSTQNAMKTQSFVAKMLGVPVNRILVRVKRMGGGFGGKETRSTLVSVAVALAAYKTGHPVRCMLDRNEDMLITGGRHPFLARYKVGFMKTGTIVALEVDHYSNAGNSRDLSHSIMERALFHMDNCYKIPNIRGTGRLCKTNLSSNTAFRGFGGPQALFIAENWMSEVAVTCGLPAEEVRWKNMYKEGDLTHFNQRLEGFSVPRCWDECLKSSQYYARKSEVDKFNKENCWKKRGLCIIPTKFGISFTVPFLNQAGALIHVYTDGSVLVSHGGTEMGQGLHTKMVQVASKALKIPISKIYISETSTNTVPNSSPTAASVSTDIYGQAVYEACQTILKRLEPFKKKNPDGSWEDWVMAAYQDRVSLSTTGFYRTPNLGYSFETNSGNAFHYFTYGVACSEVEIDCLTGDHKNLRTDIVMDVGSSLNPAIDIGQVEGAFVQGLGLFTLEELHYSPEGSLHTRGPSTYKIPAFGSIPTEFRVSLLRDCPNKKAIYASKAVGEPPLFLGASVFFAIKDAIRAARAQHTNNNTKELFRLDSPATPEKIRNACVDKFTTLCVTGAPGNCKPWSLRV

[2] = Half life in rat at 10 mg/kg, po measured during 5 mins to 24 hrs post dose by LC-MS/MS method; type: ADME, organism-based; settings: in vivo
[3] = Cmax in rat at 10 mg/kg, po measured during 5 mins to 24 hrs post dose by LC-MS/MS method; type: ADME, organism-based; set-up: dose 10 mg/kg, route oral; settings: in vivo
Mus musculus [4] = experiment: Hypouricemic effect in ICR mouse model of potassium oxonate and hypoxanthine-induced acute hyperuricemia assessed as reduction in serum uric acids level at 5 mg/kg, po dosed 1 hr after potassium oxonate and hypoxanthine challenge and measured after 1 to 4 hrs post dose; type: functional, organism-based
[5] = molecular target: T1, Xanthine dehydrogenase/oxidase; experiment: Mixed type inhibition of bovine milk xanthine oxidoreductase pre-incubated for 3 mins using varying xanthine substrate levels and measured every 1 mins for 10 mins by spectrophotometry based Lineweaver-Burk plot; settings: cattle
[6] = Tmax in rat at 10 mg/kg, po measured during 5 mins to 24 hrs post dose by LC-MS/MS method; type: ADME, organism-based; settings: in vivo
Mus musculus [7] = experiment: Hypouricemic effect in ICR mouse model of potassium oxonate and hypoxanthine-induced acute hyperuricemia assessed as reduction in serum uric acids level at 5 mg/kg, po dosed 1 hr after potassium oxonate and hypoxanthine challenge and measured after 1 hr post dose; type: functional, organism-based
Rattus norvegicus = experiment: AUC (0 to infinity) in rat at 10 mg/kg, po measured during 5 mins to 24 hrs post dose by LC-MS/MS method; type: ADME, organism-based; set-up: dose 10 mg/kg, time infinity, route oral; settings: in vivo
[8] = Tmax in rat at 3 mg/kg, po measured during 5 mins to 24 hrs post dose by LC-MS/MS method; type: ADME, organism-based; settings: in vivo

Structure (SMILES) | IC50 [1] [µM] | also measured
Cc1nn(-c2ccc(N3CCOCC3)c(C#N)c2)cc1C(=O)O | > 0.1 | 
CN(C)c1ccc(-n2cc(C(=O)O)cn2)cc1C#N | 0.0108 | 
Cc1nn(-c2ccc(OC(C)C)c(C#N)c2)cc1C(=O)O | 0.045 | 
CC1CCCN1c1ccc(-n2cc(C(=O)O)cn2)cc1C#N (stereo not given) | 0.0067 | 
CC(C)CN(C)c1ccc(-n2cc(C(=O)O)cn2)cc1C#N | 0.0057 | half-life [2]: 5 h; Cmax [3]: 0.168 µg/mL; Activity (Mus musculus [4]): Active; inhibition (INH) [5]: Active; Tmax [6]: 1 h; Activity (Mus musculus [7]): Active; AUC (Rattus norvegicus): 0.607 µg·h/mL
N#Cc1cc(-n2cc(C(=O)O)cn2)ccc1N1CCCC1 | 0.0057 | 
Cc1nn(-c2ccc(OCC(C)(C)C)c(C#N)c2)cc1C(=O)O | 0.023 | 
CCCCCCCCOc1ccc(-n2cc(C(=O)O)c(C(F)(F)F)n2)cc1C#N | > 0.1 | 
Cc1nn(-c2ccc(N3CCCCC3)c([N+](=O)[O-])c2)cc1C(=O)O | 0.0596 | 
CC(C)COc1ccc(-n2cc(C(=O)O)c(C(F)(F)F)n2)cc1C#N | > 0.1 | 
CCOc1ccc(-n2cc(C(=O)O)c(C(F)(F)F)n2)cc1C#N | > 0.1 | 
Cc1nc(-c2ccc(OCC(C)C)c(C#N)c2)sc1C(=O)O |  | Activity (Mus musculus [7]): Active
CC(C)(C)COc1ccc(-n2cc(C(=O)O)cn2)cc1C#N |  | Tmax [8]: 0.5 h
CC(C)Oc1ccc(-n2cc(C(=O)O)c(C(F)(F)F)n2)cc1C#N | > 0.1 | 
Cc1nn(-c2ccc(N3CCCCC3)c(C#N)c2)cc1C(=O)O | 0.0133 | 
CCCCCCCCOc1ccc(-n2cc(C(=O)O)c(C)n2)cc1C#N | > 0.1 | 
CC(C)CNc1ccc(-n2cc(C(=O)O)cn2)cc1C#N | 0.0077 | 
CCOc1ccc(-n2cc(C(=O)O)c(C)n2)cc1C#N | > 0.1 | 
CC(C)(C)COc1ccc(-n2cc(C(=O)O)c(C(F)(F)F)n2)cc1C#N | > 0.1 | 
N#Cc1cc(-n2cc(C(=O)O)cn2)ccc1N1CCCCC1 | 0.0042 | Activity (Mus musculus [4]): Active; Activity (Mus musculus [7]): Active
Cc1nn(-c2ccc(N3CCOCC3)c([N+](=O)[O-])c2)cc1C(=O)O | > 0.1 | 
